Key:
[1] = target: T1, V600E mutant B-RAF (Homo sapiens, UniProt P15056, V600E); experiment: V600E Mutant B-RAF 33P Assay; format: biochemical
T1 construct: purchased Upstate
Procedure: Substrate (HIS-MEK1 K97M) is prepared by Celgene Corp. as described above.
Test compound is diluted in 100% DMSO (600 μM). […] Substrate mixture is prepared as 7.5 μM HIS-MEK1 K97M in assay buffer. ATP mixture is prepared as 300 μM ATP, 75 mM MgCl2, 0.05 μCi/μl ^33P ATP in assay buffer.
In a 96 well assay plate (Falcon Polylpropylene well U-bottom), the following are added to each well: 2.5 μl of test compound solution (serial dilutions), 20 μl of substrate mixture and 17.5 μl of enzyme mixture. The plate is incubated for at least 15 minutes. 10 μl of ATP mixture is added and the plate is incubated at room temperature for about 60 minutes. 80 μl of 12.5% TCA is added to each well, and the plate is incubated for at least 20 minutes. The contents of the plate is transferred to a glass fiber filter plate (Millipore) using a Packard Harvester (washing 10× with 1×PBS). 50 μl of Scintillation-20 fluid is added to each well. The plate is read using a Packard TopCount.

[2] = tested on: pMEK1/2 in A375 cells; experiment: A375 pMEK1/2 Meso Scale Assay; format: cell-based; settings: Homo sapiens, A-375, 2 h; A375 pMEK1/2, about two hours incubation
Procedure: On the afternoon of Day 1, cells are plated in a 96-well flat bottom cell culture plate at about 50,000 cells/well in a volume of 100 μl. On the morning of Day 2, serial dilutions of test compound(s) are added to the plate. The plate is incubated for about two hours at 37° C., […]. The plate is blocked about five minutes before the compound incubation step is completed by adding 150 μl/well of MSD (Meso Scale Discovery) blocking solution-A (prepared with 20 ml 1× Tris wash buffer (25 ml of 10× Tris buffer+225 ml deionized water) and 600 mg MSD blocker A) and incubating with vigorous shaking at room temperature for one hour. The plate is washed 4× with 1× Tris wash buffer.
Cells are harvested and lysates prepared by removing medium, washing 1× with ice-cold PBS (calcium and magnesium free), adding 50 μl/well Complete Tris buffer and incubating with shaking at 4° C. for one hour. Lysate samples (25 μl) are added to an MSD Multi-Spot plate and incubated with vigorous shaking at room temperature for two hours. The plate is washed 1× with Tris wash buffer.
25 μl/well of […] detection antibody (Anti-pMEK1/2 antibody; SULFO-TAG labeled, light sensitive) in 3 ml of cold antibody dilution buffer (1 ml blocking solution-A, 1.82 ml 1× Tris wash buffer, 150 μl 2% MSD blocker D-M and 30 μl 10% MSD blocker D-R) is added and the plate is incubated with vigorous shaking at room temperature in the dark for one hour. The plate is washed 1× with Tris wash buffer.
150 μl/well of 1× MSD Read buffer T (with surfactant) is added to the plate and the plate is read using a MSD Sector instrument.

[3] = tested on: A375 cells; experiment: Alamar Blue Viability Assay; format: cell-based; settings: Homo sapiens, A-375, 72 h, 3 days
Procedure: A375 cells (ATCC # CRL-1619; Passage 4˜15; doubling time is roughly 18 hours) are used. Culture medium is DMEM (high glucose, with L-glutamine)+10% FBS+Pen/Strep. Cells are passed every three days at 1:20.
200 μl of medium only is added into all wells along the edges of a 96-well flat bottom plate and 180 μl of cell suspension (containing 1,000 cells) per well is added into the plate with a Low Evaporation Lid (Costar Cat # 3595). The cells are cultured overnight. Compounds and controls are diluted according to standard compound dilution protocol described below. From 30 mM stock solution, 10 mM, 3 mM, 1 mM, and 0.3 mM solutions in 100% DMSO are prepared using the following serial dilution protocol:
The 30, 10, 3, 1 and 0.3 mM solutions are diluted 1:50 (DMSO:medium) by adding 4 μl of each to 196 μl of culture medium. This yields 600 μM, 200 μM, 60 μM, 20 μM, and 6 μM secondary stock solutions. 4 μl of DMSO are added to 196 μl medium for the DMSO control as well. 20 μl of compound dilutions, including the DMSO control locations (Row G, Columns 2-10 are DMSO control wells), are added in triplicate to the cells in the 96-well plate using a repeat pipettor (see plate layout below). This yields final concentrations of 60 μM, 20 μM, 6 μM, 2 μM, and 0.6 μM containing 0.2% DMSO in each well. The plate is gently tapped to evenly distribute compound within the well. The plate is incubated at 5% CO2 at 37° C. for 3 days.
20 μl of Alamar Blue (Biosource #DAL-1100) is added to each well. The plate is incubated in 5% CO2 incubator for 4 hours. Fluorescence is measured with excitation wavelength at 530 nm and emission wavelength at 590 nm using a Victor 2 multilabel plate reader (Perkin Elmer). Data is saved with plate format as a Text file and entered into ActivityBase (Cell-based SAR; Prolif-Alamar; MTT 5 plates unfixed fit) to calculate the percent of DMSO values for each compound set of triplicate wells and IC50 curves are plotted.

T1 sequence (P15056 whole entry V600E): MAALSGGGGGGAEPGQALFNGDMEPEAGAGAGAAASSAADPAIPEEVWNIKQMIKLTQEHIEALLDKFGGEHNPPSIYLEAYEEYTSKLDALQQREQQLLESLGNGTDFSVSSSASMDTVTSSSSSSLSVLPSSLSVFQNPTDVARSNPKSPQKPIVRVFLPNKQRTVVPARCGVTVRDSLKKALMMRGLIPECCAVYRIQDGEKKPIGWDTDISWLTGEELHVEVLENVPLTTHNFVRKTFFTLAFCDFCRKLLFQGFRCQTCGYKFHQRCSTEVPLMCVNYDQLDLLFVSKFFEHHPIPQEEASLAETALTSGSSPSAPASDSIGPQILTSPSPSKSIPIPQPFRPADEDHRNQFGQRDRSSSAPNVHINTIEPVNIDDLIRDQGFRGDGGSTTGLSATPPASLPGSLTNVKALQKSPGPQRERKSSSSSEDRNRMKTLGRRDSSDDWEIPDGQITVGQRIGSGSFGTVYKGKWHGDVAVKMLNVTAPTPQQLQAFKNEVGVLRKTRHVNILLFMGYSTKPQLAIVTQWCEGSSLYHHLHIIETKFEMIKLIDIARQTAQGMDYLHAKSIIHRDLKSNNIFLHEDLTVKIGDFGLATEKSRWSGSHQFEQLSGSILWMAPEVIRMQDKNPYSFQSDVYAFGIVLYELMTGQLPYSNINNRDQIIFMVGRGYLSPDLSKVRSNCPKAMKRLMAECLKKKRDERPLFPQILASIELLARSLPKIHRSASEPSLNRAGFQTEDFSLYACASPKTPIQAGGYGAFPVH

| SMILES | IC50 [1] [µM] | IC50 [2] [µM] | IC50 [3] [µM] |
| --- | --- | --- | --- |
| NC(=O)c1sc2nc(NC3CC3)nc(-c3ccc(Cl)cc3)c2c1N [Example 5] | 0.1 to 10 | 0.1 to 10 | 10 to 20 |
| NC(=O)c1sc2nc(NC3CC3)nc(-c3ccc4c(c3)OCC4)c2c1N [Example 162] | 0.1 to 10 | 0.1 to 10 | 10 to 20 |
| C[C@H](CO)Cc1nc(-c2ccc(Cl)c(Cl)c2)c2c(N)c(C(N)=O)sc2n1 [Example 163] | – | 10 to 20 | 30 to 60 |
| C[C@@H](CO)Cc1nc(-c2ccc(Cl)c(Cl)c2)c2c(N)c(C(N)=O)sc2n1 [Example 164] | – | 10 to 20 | 20 to 30 |
| COc1cncc(-c2nc(NC3CC3)nc3sc(C(N)=O)c(N)c23)c1 [Example 165] | – | 0.1 to 10 | 0.1 to 10 |
| NC(=O)c1sc2nc(NC3CC3)nc(-c3ccc(Cl)nc3)c2c1N [Example 169] | 0.1 to 10 | 0.1 to 10 | 20 to 30 |
| NC(=O)c1sc2nc(NC3CC3)nc(-c3cncc(Cl)c3)c2c1N [Example 171] | 0.1 to 10 | 0.1 to 10 | 20 to 30 |
| CCOc1cncc(-c2nc(NC(C)(C)CO)nc3sc(C(N)=O)c(N)c23)c1 [Example 172] | 30 to 60 | > 60 | > 60 |
| COc1cncc(-c2nc(NC(C)(C)CO)nc3sc(C(N)=O)c(N)c23)c1 [Example 173] | – | 0.1 to 10 | 0.1 to 10 |
| CC[C@H](CO)Nc1nc(-c2cncc(OC)c2)c2c(N)c(C(N)=O)sc2n1 [Example 174] | 0.1 to 10 | 0.1 to 10 | 0.1 to 10 |
| CC[C@@H](CO)Nc1nc(-c2cncc(OC)c2)c2c(N)c(C(N)=O)sc2n1 [Example 175] | 0.1 to 10 | 0.1 to 10 | 10 to 20 |
| COc1cncc(-c2nc(N[C@H](C)CO)nc3sc(C(N)=O)c(N)c23)c1 [Example 176] | – | 0.1 to 10 | 0.1 to 10 |
| NC(=O)c1sc2nc(N)nc(-c3cccc(O)c3)c2c1N [Example 185] | 0.1 to 10 | 0.1 to 10 | 0.1 to 10 |
| Cc1ccc(-c2nc(NC3CC3)nc3sc(C(N)=O)c(N)c23)cc1C [Example 188] | 0.1 to 10 | 0.1 to 10 | 10 to 20 |
| NC(=O)c1sc2nc(C3CC3)nc(-c3ccc(Cl)c(Cl)c3)c2c1N [Example 189] | 0.1 to 10 | 20 to 30 | 0.1 to 10 |
| CC(C)(CO)Nc1nc(-c2cc(O)cc(Cl)c2)c2c(N)c(C(N)=O)sc2n1 [Example 190] | – | 0.1 to 10 | 0.1 to 10 |
| CC[C@@H](CO)Nc1nc(-c2cc(O)cc(Cl)c2)c2c(N)c(C(N)=O)sc2n1 [Example 191] | 0.1 to 10 | 0.1 to 10 | 0.1 to 10 |
| CC[C@H](CO)Nc1nc(-c2cc(O)cc(Cl)c2)c2c(N)c(C(N)=O)sc2n1 [Example 192] | 0.1 to 10 | 0.1 to 10 | 0.1 to 10 |

| SMILES | IC50 [1] [µM] | IC50 [2] [µM] | IC50 [3] [µM] |
| --- | --- | --- | --- |
| C[C@@H](CO)Nc1nc(-c2ccc(Cl)c(Cl)c2)c2c(N)c(C(N)=O)sc2n1 [Example 200] | – | 0.1 to 10 | 10 to 20 |
| C[C@H](CO)Nc1nc(-c2ccc(Cl)c(Cl)c2)c2c(N)c(C(N)=O)sc2n1 [Example 201] | – | 0.1 to 10 | 10 to 20 |
| NC(=O)CCNc1nc(-c2ccc(Cl)c(Cl)c2)c2c(N)c(C(N)=O)sc2n1 [Example 202] | 0.1 to 10 | 20 to 30 | 10 to 20 |
| CC(C)(CO)Nc1nc(-c2ccc(Cl)c(Cl)c2)c2c(N)c(C(N)=O)sc2n1 [Example 203] | – | 0.1 to 10 | 10 to 20 |
| NC(=O)c1sc2nc(NC(CO)CO)nc(-c3ccc(Cl)c(Cl)c3)c2c1N [Example 204] | 0.1 to 10 | 10 to 20 | 20 to 30 |
| C[C@H](O)CNc1nc(-c2ccc(Cl)c(Cl)c2)c2c(N)c(C(N)=O)sc2n1 [Example 205] | 0.1 to 10 | 20 to 30 | 20 to 30 |
| C[C@@H](O)CNc1nc(-c2ccc(Cl)c(Cl)c2)c2c(N)c(C(N)=O)sc2n1 [Example 206] | 0.1 to 10 | 20 to 30 | 20 to 30 |
| C[C@H](CO)Oc1nc(-c2ccc(Cl)c(Cl)c2)c2c(N)c(C(N)=O)sc2n1 [Example 212] | – | 0.1 to 10 | 10 to 20 |
| NC(=O)c1sc2nc(NC3CC3)nc(-c3cccc(O)c3F)c2c1N [Example 232] | – | 0.1 to 10 | 0.1 to 10 |
| CC(C)c1nc(-c2ccc(Cl)c(Cl)c2)c2c(N)c(C(N)=O)sc2n1 [Example 238] | 0.1 to 10 | 10 to 20 | – |
| NC(=O)c1sc2nc(NC3CC3)nc(-c3cccc(NC(=O)Nc4ccccc4)c3)c2c1N [Example 248] | – | 10 to 20 | 10 to 20 |
| NC(=O)c1sc2nc(NC3CC3)nc(-c3cccc(NC(=O)Nc4ccc(C(F)(F)F)cc4)c3)c2c1N [Example 250] | – | 0.1 to 10 | 0.1 to 10 |
| Cc1ccc(NC(=O)Nc2cccc(-c3nc(NC4CC4)nc4sc(C(N)=O)c(N)c34)c2)cc1 [Example 251] | – | 0.1 to 10 | 0.1 to 10 |
| CC(C)(CO)Nc1nc(-c2cccc(NC(=O)Nc3ccc(C(F)(F)F)cc3)c2)c2c(N)c(C(N)=O)sc2n1 [Example 257] | – | 0.1 to 10 | 0.1 to 10 |
| NC(=O)c1sc2ncnc(-c3cccc(NC(=O)Nc4ccc(C(F)(F)F)cc4)c3)c2c1N [Example 262] | – | 0.1 to 10 | 0.1 to 10 |
| NC(=O)c1sc2ncnc(-c3ccc(Cl)c(Cl)c3)c2c1N [Example 269] | – | > 60 | > 60 |
| NC(=O)c1sc2ncnc(-c3cccc(NC(=O)Nc4cccnc4)c3)c2c1N [Example 293] | 0.1 to 10 | – | 10 to 20 |
